Source: ChEMBL document CHEMBL3991601, “The target landscape of clinical kinase drugs” (Science, 2017)
Calls of active or inactive are those of the source. Cut-off read from the data, not from the text of the source: actives have a measured Kd and inactives only a lower limit.

What was measured:
[1] = molecular target: T1, Serine/threonine-protein kinase TAO1 (Homo sapiens, UniProt Q7L7X3)
T1 sequence (Q7L7X3 whole entry): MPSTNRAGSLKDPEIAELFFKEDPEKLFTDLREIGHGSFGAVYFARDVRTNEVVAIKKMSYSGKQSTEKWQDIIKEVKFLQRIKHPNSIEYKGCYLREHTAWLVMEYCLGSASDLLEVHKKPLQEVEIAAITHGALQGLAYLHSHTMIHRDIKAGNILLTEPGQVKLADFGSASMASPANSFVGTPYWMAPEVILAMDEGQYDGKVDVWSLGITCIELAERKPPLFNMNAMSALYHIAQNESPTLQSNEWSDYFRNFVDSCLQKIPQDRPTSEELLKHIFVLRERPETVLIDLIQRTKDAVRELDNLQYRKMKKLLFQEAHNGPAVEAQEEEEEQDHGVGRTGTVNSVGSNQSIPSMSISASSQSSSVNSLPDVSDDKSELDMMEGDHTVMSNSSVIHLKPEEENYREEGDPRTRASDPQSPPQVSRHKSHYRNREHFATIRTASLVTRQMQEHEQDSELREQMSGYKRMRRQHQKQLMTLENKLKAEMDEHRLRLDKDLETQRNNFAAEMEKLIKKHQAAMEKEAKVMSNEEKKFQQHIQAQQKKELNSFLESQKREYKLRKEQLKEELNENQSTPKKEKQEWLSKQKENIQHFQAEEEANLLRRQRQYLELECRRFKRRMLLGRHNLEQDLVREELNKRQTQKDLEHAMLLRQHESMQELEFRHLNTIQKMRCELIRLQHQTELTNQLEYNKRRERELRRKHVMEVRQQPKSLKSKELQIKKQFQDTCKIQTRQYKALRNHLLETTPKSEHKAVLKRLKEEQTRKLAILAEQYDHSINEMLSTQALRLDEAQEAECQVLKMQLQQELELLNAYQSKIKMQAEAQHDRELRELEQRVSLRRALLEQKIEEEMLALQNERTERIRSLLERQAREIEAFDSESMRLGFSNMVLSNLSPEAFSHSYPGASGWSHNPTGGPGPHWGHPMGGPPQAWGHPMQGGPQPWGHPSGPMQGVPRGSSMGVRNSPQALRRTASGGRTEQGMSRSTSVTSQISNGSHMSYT

[2] = molecular target: Wee1-like protein kinase (Homo sapiens, UniProt P30291)
[3] = molecular target: Dual specificity mitogen-activated protein kinase kinase 2 (Homo sapiens, UniProt P36507)
[4] = molecular target: T2, Bone morphogenetic protein receptor type-2 (Homo sapiens, UniProt Q13873)
T2 sequence (Q13873 whole entry): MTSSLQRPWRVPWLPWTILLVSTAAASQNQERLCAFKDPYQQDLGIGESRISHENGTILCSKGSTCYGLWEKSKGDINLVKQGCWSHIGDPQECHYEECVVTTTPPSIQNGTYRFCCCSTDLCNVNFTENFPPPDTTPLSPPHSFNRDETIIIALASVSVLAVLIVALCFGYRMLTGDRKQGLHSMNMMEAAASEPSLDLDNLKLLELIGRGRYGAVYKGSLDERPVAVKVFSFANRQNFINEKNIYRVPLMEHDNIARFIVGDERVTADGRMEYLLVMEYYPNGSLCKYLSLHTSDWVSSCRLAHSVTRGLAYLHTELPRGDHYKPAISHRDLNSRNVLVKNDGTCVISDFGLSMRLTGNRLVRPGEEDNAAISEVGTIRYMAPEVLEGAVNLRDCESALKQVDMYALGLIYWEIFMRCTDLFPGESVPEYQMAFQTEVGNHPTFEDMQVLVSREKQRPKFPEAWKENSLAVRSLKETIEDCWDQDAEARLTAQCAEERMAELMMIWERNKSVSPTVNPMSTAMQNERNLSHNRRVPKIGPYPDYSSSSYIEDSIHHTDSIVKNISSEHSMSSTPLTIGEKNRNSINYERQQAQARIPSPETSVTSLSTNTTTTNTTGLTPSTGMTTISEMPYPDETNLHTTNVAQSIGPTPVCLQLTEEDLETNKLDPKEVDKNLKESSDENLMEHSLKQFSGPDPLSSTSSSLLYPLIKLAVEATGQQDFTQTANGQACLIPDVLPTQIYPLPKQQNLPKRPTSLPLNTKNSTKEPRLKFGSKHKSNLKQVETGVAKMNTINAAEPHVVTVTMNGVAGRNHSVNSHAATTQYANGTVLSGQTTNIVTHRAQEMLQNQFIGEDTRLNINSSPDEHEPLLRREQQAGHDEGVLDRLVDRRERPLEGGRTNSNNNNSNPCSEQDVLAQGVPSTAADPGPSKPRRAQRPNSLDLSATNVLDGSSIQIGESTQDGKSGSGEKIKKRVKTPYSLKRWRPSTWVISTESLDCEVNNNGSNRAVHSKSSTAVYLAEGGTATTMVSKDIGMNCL

[5] = molecular target: Glycogen synthase kinase-3 alpha (Homo sapiens, UniProt P49840)
[6] = molecular target: T3, Serine/threonine-protein kinase TAO3 (Homo sapiens, UniProt Q9H2K8)
T3 sequence (Q9H2K8 whole entry): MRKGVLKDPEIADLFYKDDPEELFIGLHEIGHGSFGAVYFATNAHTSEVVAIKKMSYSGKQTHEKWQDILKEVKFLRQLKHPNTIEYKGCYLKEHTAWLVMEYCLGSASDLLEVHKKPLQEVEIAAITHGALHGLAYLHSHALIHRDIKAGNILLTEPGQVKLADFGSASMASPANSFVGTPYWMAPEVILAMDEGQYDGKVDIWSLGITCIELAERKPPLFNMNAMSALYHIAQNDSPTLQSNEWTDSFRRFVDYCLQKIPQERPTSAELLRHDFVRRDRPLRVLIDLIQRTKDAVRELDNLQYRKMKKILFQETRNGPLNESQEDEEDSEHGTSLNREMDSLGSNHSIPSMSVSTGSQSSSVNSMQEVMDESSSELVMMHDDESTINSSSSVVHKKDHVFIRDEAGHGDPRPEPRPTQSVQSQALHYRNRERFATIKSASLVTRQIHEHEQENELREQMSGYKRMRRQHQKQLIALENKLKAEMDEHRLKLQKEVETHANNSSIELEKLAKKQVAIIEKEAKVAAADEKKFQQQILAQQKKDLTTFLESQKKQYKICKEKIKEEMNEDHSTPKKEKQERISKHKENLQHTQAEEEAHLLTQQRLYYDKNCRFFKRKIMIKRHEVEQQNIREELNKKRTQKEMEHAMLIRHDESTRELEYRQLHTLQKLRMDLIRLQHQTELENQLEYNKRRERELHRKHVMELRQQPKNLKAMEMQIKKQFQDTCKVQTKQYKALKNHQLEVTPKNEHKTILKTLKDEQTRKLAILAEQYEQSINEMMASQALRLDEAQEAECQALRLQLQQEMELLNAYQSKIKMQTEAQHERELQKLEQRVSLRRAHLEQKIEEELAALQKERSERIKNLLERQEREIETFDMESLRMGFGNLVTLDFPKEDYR
Note: in the data inactive means no Kd found up to 30 µM.

Wee1-like protein kinase, sequence (P30291 whole entry): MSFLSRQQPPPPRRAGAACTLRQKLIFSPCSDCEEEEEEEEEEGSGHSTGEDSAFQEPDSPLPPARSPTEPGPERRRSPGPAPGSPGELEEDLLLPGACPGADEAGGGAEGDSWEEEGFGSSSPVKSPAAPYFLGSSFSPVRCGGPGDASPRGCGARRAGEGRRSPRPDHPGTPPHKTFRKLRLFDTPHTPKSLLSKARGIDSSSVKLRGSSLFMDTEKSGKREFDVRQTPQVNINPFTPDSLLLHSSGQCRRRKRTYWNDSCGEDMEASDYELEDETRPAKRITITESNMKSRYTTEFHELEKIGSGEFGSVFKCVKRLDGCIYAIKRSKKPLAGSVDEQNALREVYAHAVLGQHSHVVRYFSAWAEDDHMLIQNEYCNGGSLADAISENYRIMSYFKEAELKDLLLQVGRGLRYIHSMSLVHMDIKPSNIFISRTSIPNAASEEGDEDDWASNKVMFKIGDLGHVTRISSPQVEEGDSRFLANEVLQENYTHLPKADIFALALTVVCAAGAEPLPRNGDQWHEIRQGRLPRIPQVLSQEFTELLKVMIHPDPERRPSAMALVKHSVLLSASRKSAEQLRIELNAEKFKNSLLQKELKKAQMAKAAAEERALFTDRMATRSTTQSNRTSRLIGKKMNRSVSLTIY
Dual specificity mitogen-activated protein kinase kinase 2, sequence (P36507 whole entry): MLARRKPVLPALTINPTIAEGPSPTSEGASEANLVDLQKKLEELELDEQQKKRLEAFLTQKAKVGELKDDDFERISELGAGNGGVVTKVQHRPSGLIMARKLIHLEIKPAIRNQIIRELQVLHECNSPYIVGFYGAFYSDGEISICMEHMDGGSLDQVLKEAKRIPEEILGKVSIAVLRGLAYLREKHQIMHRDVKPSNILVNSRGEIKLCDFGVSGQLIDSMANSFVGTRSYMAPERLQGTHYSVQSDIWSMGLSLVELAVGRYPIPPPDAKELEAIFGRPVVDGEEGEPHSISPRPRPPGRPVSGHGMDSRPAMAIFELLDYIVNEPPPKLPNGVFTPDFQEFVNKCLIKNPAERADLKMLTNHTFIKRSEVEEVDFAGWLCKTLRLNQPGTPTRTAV
Glycogen synthase kinase-3 alpha, sequence (P49840 whole entry): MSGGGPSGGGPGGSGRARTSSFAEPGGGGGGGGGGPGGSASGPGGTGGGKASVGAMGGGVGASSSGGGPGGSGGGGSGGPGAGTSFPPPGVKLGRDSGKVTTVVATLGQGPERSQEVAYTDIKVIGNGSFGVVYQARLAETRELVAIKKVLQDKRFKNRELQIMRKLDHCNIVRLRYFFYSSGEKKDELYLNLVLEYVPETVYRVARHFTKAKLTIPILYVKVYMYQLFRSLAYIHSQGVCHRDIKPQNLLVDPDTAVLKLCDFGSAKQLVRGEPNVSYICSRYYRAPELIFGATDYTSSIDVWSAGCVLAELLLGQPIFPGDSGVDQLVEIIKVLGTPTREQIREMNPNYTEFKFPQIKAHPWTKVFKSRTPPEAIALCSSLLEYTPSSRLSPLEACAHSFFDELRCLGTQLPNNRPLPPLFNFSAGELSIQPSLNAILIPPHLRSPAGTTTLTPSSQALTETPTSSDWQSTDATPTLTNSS

Kd [1]	Kd [2]	Kd [3]	Kd [4]	Kd [5]	Kd [6]	Structure (SMILES)
> 30 µM (inactive)	> 30 µM (inactive)	> 30 µM (inactive)	> 30 µM (inactive)	> 30 µM (inactive)	> 30 µM (inactive)	C[C@@H](Oc1cc(C(=O)Nc2ccc(C(=O)N3CCN(C)CC3)cc2)nnc1N)c1c(Cl)ccc(F)c1Cl
> 30 µM (inactive)	> 30 µM (inactive)	> 30 µM (inactive)	> 30 µM (inactive)	> 30 µM (inactive)	11.8 µM (active)	C[C@H]1CNCCCN1S(=O)(=O)c1cccc2cncc(F)c12
> 30 µM (inactive)	> 30 µM (inactive)	–	> 30 µM (inactive)	> 30 µM (inactive)	> 30 µM (inactive)	CCNC(=O)C#Cc1ccc2c(c1)NC(=O)/C2=C(\Nc1ccc(CN(C)C)cc1)c1ccccc1
> 30 µM (inactive)	> 30 µM (inactive)	> 30 µM (inactive)	> 30 µM (inactive)	> 30 µM (inactive)	> 30 µM (inactive)	C=CC(=O)N1CCC[C@H](n2c(=O)n(-c3ccc(Oc4ccccc4)cc3)c3c(N)ncnc32)C1
1.09 µM (active)	> 30 µM (inactive)	1.92 µM (active)	> 30 µM (inactive)	> 30 µM (inactive)	> 30 µM (inactive)	Cc1nc2cc(-c3nn(C(C)C)c4ncnc(N)c34)ccc2o1
> 30 µM (inactive)	> 30 µM (inactive)	> 30 µM (inactive)	> 30 µM (inactive)	> 30 µM (inactive)	> 30 µM (inactive)	COCc1c(-c2ccc(NC(=O)Nc3cc(C(F)(F)F)ccc3F)c(F)c2)c2c(N)ncnn2c1CN1CCOCC1
> 30 µM (inactive)	> 30 µM (inactive)	5.76 µM (active)	> 30 µM (inactive)	> 30 µM (inactive)	> 30 µM (inactive)	Nc1ncnc2c1c(-c1cccc(OCc3ccccc3)c1)cn2[C@H]1C[C@@H](CN2CCC2)C1 [AEW-541]
–	> 30 µM (inactive)	–	> 30 µM (inactive)	–	> 30 µM (inactive)	COc1cc(Nc2ncc3c(n2)-c2ccc(Cl)cc2C(c2c(F)cccc2OC)=NC3)ccc1C(=O)O [ALISERTIB]
> 30 µM (inactive)	> 30 µM (inactive)	> 30 µM (inactive)	> 30 µM (inactive)	> 30 µM (inactive)	> 30 µM (inactive)	Cc1nc(NC(=O)N2CCC[C@H]2C(N)=O)sc1-c1ccnc(C(C)(C)C(F)(F)F)c1 [ALPELISIB]
1.9 µM (active)	> 30 µM (inactive)	3.49 µM (active)	> 30 µM (inactive)	> 30 µM (inactive)	1.77 µM (active)	Cc1csc(-c2nnc(Nc3ccc(Oc4ncccc4-c4ccnc(N)n4)cc3)c3ccccc23)c1 [AMG-900]
2.22 µM (active)	> 30 µM (inactive)	> 30 µM (inactive)	0.043 µM (active)	0.006 µM (active)	> 30 µM (inactive)	O=C(Nc1c[nH]nc1-c1nc2cc(CN3CCOCC3)ccc2[nH]1)NC1CC1 [AT-9283]
> 30 µM (inactive)	> 30 µM (inactive)	> 30 µM (inactive)	> 30 µM (inactive)	> 30 µM (inactive)	> 30 µM (inactive)	C=CC(=O)Nc1cc2c(Nc3ccc(F)c(Cl)c3)ncnc2cc1C#CC(C)(C)N1CCN(C)CC1 [AV-412 FREE BASE]
> 30 µM (inactive)	> 30 µM (inactive)	–	> 30 µM (inactive)	> 30 µM (inactive)	> 30 µM (inactive)	Cc1cc(C(=O)NOCCO)c(Nc2ccc(I)cc2F)n(C)c1=O [AZD-8330]
–	> 30 µM (inactive)	> 30 µM (inactive)	> 30 µM (inactive)	> 30 µM (inactive)	> 30 µM (inactive)	CCn1cc(-c2ccnc3[nH]c(-c4cccc(CN(C)C)c4)cc23)c(-c2ccc(NC(=O)N(C)C)cc2)n1 [GSK-1070916]
–	0.013 µM (active)	> 30 µM (inactive)	> 30 µM (inactive)	> 30 µM (inactive)	10.6 µM (active)	CNC(=O)c1nn(C)c2c1C(C)(C)Cc1cnc(Nc3ccc(N4CCN(C)CC4)cc3)nc1-2 [MILCICLIB]
–	> 30 µM (inactive)	3.23 µM (active)	0.019 µM (active)	–	> 30 µM (inactive)	Cc1[nH]c(/C=C2\C(=O)Nc3ccccc32)c(C)c1CCC(=O)O [ORANTINIB]
–	> 30 µM (inactive)	–	> 30 µM (inactive)	–	–	NC(=O)c1c(OCc2c(F)cc(Br)cc2F)nsc1NC(=O)NCCCCN1CCCC1 [OSI-632]
–	1.59 µM (active)	–	0.008 µM	–	2.4 µM (active)	CC(=O)NCC(=O)N1[C@@H]2CC[C@H]1c1ccc(Nc3ncc(C(F)(F)F)c(NC4CCC4)n3)cc12 [PF-03814735]

Structure (SMILES)	Kd [1]	Kd [2]	Kd [3]	Kd [4]	Kd [5]	Kd [6]
CC(=O)c1cnc2ccc(-c3cc(Cl)c(O)c(Cl)c3)nc2c1N[C@H]1CC[C@H](CN(C)C)CC1	0.017 µM (active)	> 30 µM (inactive)	> 30 µM (inactive)	> 30 µM (inactive)	0.087 µM (active)	0.021 µM (active)
CC(C)(C)c1nc(-c2cccc(NS(=O)(=O)c3c(F)cccc3F)c2F)c(-c2ccnc(N)n2)s1 [DABRAFENIB]	–	> 30 µM (inactive)	–	> 30 µM (inactive)	–	> 30 µM (inactive)
O=C(Nc1cc(C(F)(F)F)cc(C(F)(F)F)c1)c1cc(Cl)ccc1O [IMD-0354]	> 30 µM (inactive)	> 30 µM (inactive)	> 30 µM (inactive)	> 30 µM (inactive)	–	> 30 µM (inactive)
CCOc1cc2ncc(C#N)c(Nc3ccc(F)c(Cl)c3)c2cc1NC(=O)/C=C/CN(C)C [PELITINIB]	> 30 µM (inactive)	–	–	> 30 µM (inactive)	> 30 µM (inactive)	> 30 µM (inactive)
